Assay results reported in PMC9320628, “Analysis of Structural Determinants of Peptide MS 9a-1 Essential for Potentiating of TRPA1 Channel” (Marine Drugs, 2022).
Where two headings read alike, the source gives them in different places. Where a SMILES comes first, the peptide text is derived from it. Bridges are numbered along the chain shown (N, C = ends).

Legend:
[1] = target: T1, rat TRPA1 (Q6RI86) channel (Rattus norvegicus, UniProt Q6RI86); test: Potentiation of diclofenac-induced TRPA1 currents, two-electrode recordings in Xenopus laevis oocytes; type: cell-based; conditions: for Maximal potentiating effect lower than that of Ms 9a-1: compared to Ms 9a-1, inward and outward currents; for Diclofenac-induced inward current potentiated up to (maximal, % of control) / EC50 / Diclofenac-induced outward current potentiated up to (maximal, % of control): oocytes expressing rat TRPA1, diclofenac 300 μM; for EC50: Ca2+-free solution, 22–24 °C, mean ± SD of 4–7 measurements, SD
T1 construct: expressed in transfected cells; host or cells: Xenopus laevis oocytes injected with cRNA
Description: Peptide activity was measured in Xenopus laevis oocytes, heterologously expressing the TRPA1 channel (Figure 2 and Figure S2). Recordings occurred in repeated 4 s pulses of voltage ramp from −100 mV to 100 mV over 200 ms, whereby inward current was measured at −100 mV and outward at 100 mV.
Oocytes expressing rat TRPA1 (Q6RI86) channel were prepared as described previously. Experiments were approved by the Institutional Animal Care and Use Committee (IACUC) of the Shemyakin–Ovchinnikov Institute of Bioorganic Chemistry Russian Academy of Sciences (Protocol Number 267/2018; date of approval: 28 February 2019). Female frogs were anaesthetized with 0.17% solution of tricaine methane sulfonate (MS222) and oocytes were surgically removed. cRNA was synthesized using a HiScribe™ T7 High Yield RNA Synthesis Kit (New England Biolabs, Ipswich, MA, USA) according to the manufacturers’ protocol for capped transcripts and then injected in X. laevis oocytes. The oocytes were kept for 2–7 days at 16–17 °C in sterile ND-96 medium (96 mM NaCl, 2 mM KCl, 1.8 mM CaCl2, 1 mM MgCl2, 5 mM HEPES, pH 7.4) supplemented with 50 μg/mL gentamycin. Electrophysiological recordings were carried out at room temperature (22–24 °C) in Ca^2+-free solution (96 mM NaCl, 2 mM KCl, 1 mM MgCl2, 5 mM HEPES, pH 7.4) using the GeneClamp500 amplifier (Axon Instruments, Union City, CA, USA) at a holding potential of −50 mV. The data were filtered at 20 Hz and digitized at 100 Hz by an AD converter L780 (LCard, Moscow, Russia) using in-house software. Oocytes were impaled with two glass microelectrodes filled with 3 M KCl. Inward/outward currents were recorded at repeated every 4 seconds a stimuli comprising step from holding potential to −100 mV for 80 ms followed by voltage ramp from −100 mV to +100 mV for 200 ms and final step to holding potential. Diclofenac (300 μM in Ca^2+-free solution) was used to activate the channel.

[2] = cited from earlier work
Text: We compared the efficacy of peptides Ms 9a-1, C-Ms, N-Ms, Ms 9a-2, and Ms 9a-3 in models of AITC- ...

[3] = test system: TRPA1-expressing oocytes; conditions: cited from earlier work
Description: Oocytes expressing rat TRPA1 (Q6RI86) channel were prepared as described previously. Experiments were approved by the Institutional Animal Care and Use Committee (IACUC) of the Shemyakin–Ovchinnikov Institute of Bioorganic Chemistry Russian Academy of Sciences (Protocol Number 267/2018; date of approval: 28 February 2019). Female frogs were anaesthetized with 0.17% solution of tricaine methane sulfonate (MS222) and oocytes were surgically removed. cRNA was synthesized using a HiScribe™ T7 High Yield RNA Synthesis Kit (New England Biolabs, Ipswich, MA, USA) according to the manufacturers’ ...

[4] = inward current at −100 mV, read-out: EC50 of potentiation of diclofenac-induced inward TRPA1 current
[5] = outward current at +100 mV, read-out: EC50 of potentiation of diclofenac-induced outward TRPA1 current

T1 sequence (Q6RI86 whole entry): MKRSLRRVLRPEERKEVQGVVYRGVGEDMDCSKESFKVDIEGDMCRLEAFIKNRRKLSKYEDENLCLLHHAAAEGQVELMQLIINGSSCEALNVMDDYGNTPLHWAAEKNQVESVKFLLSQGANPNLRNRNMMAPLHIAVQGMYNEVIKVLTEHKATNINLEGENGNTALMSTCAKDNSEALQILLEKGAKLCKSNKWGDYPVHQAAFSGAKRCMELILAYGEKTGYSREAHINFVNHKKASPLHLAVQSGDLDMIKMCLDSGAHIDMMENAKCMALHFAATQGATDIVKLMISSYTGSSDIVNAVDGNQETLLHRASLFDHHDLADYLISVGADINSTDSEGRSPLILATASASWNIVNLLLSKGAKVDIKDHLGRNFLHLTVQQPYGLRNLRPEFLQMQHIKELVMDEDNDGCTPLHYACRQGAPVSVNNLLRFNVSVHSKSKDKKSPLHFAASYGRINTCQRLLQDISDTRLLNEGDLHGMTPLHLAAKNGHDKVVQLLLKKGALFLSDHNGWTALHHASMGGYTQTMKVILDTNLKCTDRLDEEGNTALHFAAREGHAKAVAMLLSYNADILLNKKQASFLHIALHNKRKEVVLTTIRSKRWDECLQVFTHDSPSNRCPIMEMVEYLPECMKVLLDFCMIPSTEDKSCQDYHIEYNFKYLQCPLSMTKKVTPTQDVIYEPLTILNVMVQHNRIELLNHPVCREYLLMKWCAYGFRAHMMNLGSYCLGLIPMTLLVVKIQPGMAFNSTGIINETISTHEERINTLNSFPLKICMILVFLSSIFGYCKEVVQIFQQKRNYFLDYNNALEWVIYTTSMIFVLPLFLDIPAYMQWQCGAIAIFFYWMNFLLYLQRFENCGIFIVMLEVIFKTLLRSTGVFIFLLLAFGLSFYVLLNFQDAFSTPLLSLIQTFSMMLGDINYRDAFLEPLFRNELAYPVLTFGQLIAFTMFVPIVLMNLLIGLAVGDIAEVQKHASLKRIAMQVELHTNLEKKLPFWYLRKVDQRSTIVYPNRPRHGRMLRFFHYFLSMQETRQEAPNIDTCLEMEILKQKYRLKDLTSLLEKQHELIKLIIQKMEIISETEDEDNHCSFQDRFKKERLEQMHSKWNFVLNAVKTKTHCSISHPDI

| SMILES | Maximal potentiating effect lower than that of Ms 9a-1 [1] | Increase of effective concentration (EC50) for inward current compared to Ms 9a-1 ([1]; inward current, relative to Ms 9a-1) | Diclofenac-induced inward current potentiated up to (maximal, % of control) ([1]; inward current at −100 mV) | EC50 [1, 4] | Diclofenac-induced outward current potentiated up to (maximal, % of control) ([1]; outward current at +100 mV) | EC50 [1, 5] | Pain or thermal hyperalgesia caused in vivo [2] | EC50 ([3]; X. laevis oocytes, read-out: EC50 of current increase in TRPA1-expressing oocytes) | Effect on uninjected oocytes of X. laevis ([3]; uninjected oocytes) |
| --- | --- | --- | --- | --- | --- | --- | --- | --- | --- |
| CC[C@H](C)[C@@H]1NC(=O)[C@H](CCCNC(=N)N)NC(=O)[C@H](C(C)C)NC(=O)[C@@H]2CSSC[C@H](NC(=O)CNC(=O)CNC(=O)[C@@H](NC(=O)[C@@H](NC(=O)[C@@H](NC(=O)[C@@H](N)CC(N)=O)[C@@H](C)CC)[C@@H](C)CC)C(C)C)C(=O)N[C@@H](CO)C(=O)N[C@@H](CCCCN)C(=O)N[C@@H](CSSC[C@@H](C(=O)NCC(=O)N[C@H](C(=O)O)C(C)C)NC(=O)CNC(=O)[C@H](C)NC1=O)C(=O)N[C@@H](Cc1c[nH]cn1)C(=O)N[C@@H](CCCCN)C(=O)N[C@@H](CCC(N)=O)C(=O)N[C@@H](CC(=O)O)C(=O)N[C@@H](CO)C(=O)N[C@@H](CO)C(=O)NCC(=O)N[C@@H](CC(N)=O)C(=O)N2 [Ms 9a-2] (H-NIIVGGCSKCHKQDSSGNCVRIAGCGV-OH; disulfide 7-19, 10-25) | 45–50% | 3 times | 139% | 412 ± 48 nM | 131% | 606 ± 201 nM | – | – | – |
| CC[C@H](C)[C@@H]1NC(=O)[C@@H](NC(=O)CNC(=O)CNC(=O)[C@@H](NC(=O)[C@@H](NC(=O)[C@@H](NC(=O)[C@@H](N)CC(N)=O)[C@@H](C)CC)[C@@H](C)CC)C(C)C)CSSC[C@@H]2NC(=O)[C@H](CCCNC(=N)N)NC(=O)CNC(=O)[C@H](CO)NC(=O)[C@H](C)NC(=O)[C@H](CC(N)=O)NC(=O)[C@H](CCCCN)NC(=O)[C@H](C(C)C)NC(=O)[C@H](Cc3c[nH]cn3)NC(=O)[C@H](CSSC[C@@H](C(=O)NCC(=O)N[C@H](C(=O)N[C@@H](CC(=O)O)C(=O)N[C@@H](CCCCN)C(=O)N[C@H](C(=O)N3CCC[C@H]3C(=O)N[C@@H](CC(=O)O)C(=O)N[C@@H](CC(C)C)C(=O)N[C@@H](Cc3ccccc3)C(=O)N[C@@H](CO)C(=O)O)C(C)C)C(C)C)NC(=O)CNC(=O)[C@H](C(C)C)NC(=O)[C@H]([C@@H](C)CC)NC(=O)[C@H](CCCNC(=N)N)NC(=O)[C@H](C(C)C)NC2=O)NC(=O)[C@H](CCCCN)NC1=O [Ms 9a-1] (H-NIIVGGCIKCHVKNASGRCVRIVGCGVDKVPDLFS-OH; disulfide 7-19, 10-25) | – | – | 190% | 210 ± 3 nM | 175% | 32 ± 7 nM | does not cause pain or thermal hyperalgesia | – | – |
| CC[C@H](C)[C@@H]1NC(=O)[C@H](CCCNC(=N)N)NC(=O)[C@H](C(C)C)NC(=O)[C@@H]2CSSC[C@H](NC(=O)CNC(=O)CNC(=O)[C@@H](NC(=O)[C@@H](NC(=O)[C@@H](NC(=O)[C@@H](N)CC(N)=O)[C@@H](C)CC)[C@@H](C)CC)C(C)C)C(=O)N[C@@H](CO)C(=O)N[C@@H](CCCCN)C(=O)N[C@@H](CSSC[C@@H](C(=O)NCC(=O)N[C@H](C(=O)O)C(C)C)NC(=O)CNC(=O)[C@H](C)NC1=O)C(=O)N[C@@H](Cc1c[nH]cn1)C(=O)N[C@@H]([C@@H](C)O)C(=O)N[C@@H](CCC(=O)O)C(=O)N[C@@H](CC(=O)O)C(=O)N[C@@H](CO)C(=O)N[C@@H](CC(N)=O)C(=O)NCC(=O)N[C@@H](CC(N)=O)C(=O)N2 [Ms 9a-3] (H-NIIVGGCSKCHTEDSNGNCVRIAGCGV-OH; disulfide 7-19, 10-25) | 15–30% | – | 159% | 5440 ± 2900 nM | 175% | 7800 ± 600 nM | – | – | – |
| O=C(O)Cc1ccccc1Nc1c(Cl)cccc1Cl [Diclofenac] | – | – | – | – | – | – | – | 210000 nM | no effect |
